Test results reported in patent publication US10646538B2, “Self-assembling tripeptides” (ENDO Biologics, Inc., priority 2014, dated 2020).
Entries after “also recorded” stand apart in the source; their conditions may differ. Peptide text beside a SMILES is read from it.

Experiments:
Format in all cases: physicochemical
[1] = Aggregation behaviour of tripeptides dissolved in water at pH 7; details: for solubility: water / D2O; for aggregation behavior on dissolving in water: water at pH 7, 30 mmol/L
Method: Tripeptides were dissolved in water by sonication and vortexing, followed by bringing the pH to 7.2±0.1 by dropwise addition of 0.25 M NaOH solution to a final concentration of 30 mmol/L. These were diluted to 10 mmol/L for DLS and NMR experiments. Note that the KYF gel could also be prepared by direct dissolution into a 0.1 M phosphate buffer at pH 7. Characterization of the resulting samples took places at least 24 hours after sample preparation. Samples for FTIR and NMR analysis were prepared using D2O (99.9% D) and NaOD solution instead of H2O and NaOH.
The bottom half of Table 2 contains the tripeptides that were selected for synthesis and experimental characterization. The selection was made to include a wide range of AP and APH scores, including PFF (#1 from AP score) and KFD (#1 from APH score) and peptides that adhere to one or more of our design rules formulated above, such as KYF. […] These peptides were dissolved in water at pH 7 and their aggregation behavior was studied in order to test the predictive value of our method.

[2] = Diffusion Ordered NMR spectroscopy (DOSY); details: 10 mM in D2O, pH 7, 298 K
Text: DOSY spectra were acquired at 600 MHz using a Bruker Avance 600 spectrometer using the Bruker microprogram dstebpgp3sat at 298 K. The eddy current delay (Te) was set to 5 ms. The diffusion time was adjusted to 100 ms. […] The pulse gradient was increased from 2 to 95% of the maximum gradient strength using a linear ramp 16 k data points in the F2 dimension (20 ppm) and 16 data points in the F1 dimension were collected. […] This method is able to determine the diffusion coefficient D of supramolecular aggregates and therefore their relative size, as described by the Stokes-Einstein equation.^43,44 Diffusion constants for all the studied tripeptides can be found in Table 2. […] For the remaining peptides, DOSY results are in good agreement with the predicted aggregation propensity at 50 ns.

[3] = Dynamic light scattering (DLS); details: 10 mM at pH 7, 25° C.
Method: The dynamic light scattering (DLS) measurements were carried out on 10 mmol/L peptide solutions (i.e. below the critical gelation concentration) by using a 3 DDLS spectrophotometer (LS instruments, Fribourg, Switzerland) using vertically polarized He—Ne laser light (25 mW with wavelength of 632.8 nm) with an avalanche photodiode detector at an angle of 90° at 25° C. Intensity autocorrelation functions were recorded and analyzed by means of the cumulant method in order to determine the intensity weighted diffusion coefficients D and the average hydrodynamic radius Rh by using the Stokes-Einstein equation, Rh=kBT/6πηD, where kB is the Boltzmann constant, T is the absolute temperature and η is the solvent viscosity at the given temperature.
To further confirm the presence (and size) of the peptide aggregates formed, dynamic light scattering (DLS) experiments were performed on the KYF gel, PFF suspension and KFD and GGG solutions.

[4] = TEM of tripeptide samples; details: samples at pH 7
Method: Carbon-coated copper grids (200 mesh) were glow discharged in air for 30 s. The support film was touched onto the gel surface for 3 s and blotted down using filter paper. Negative stain ([…], 1% aqueous methylamine vanadate (Nanovan; Nanoprobes) was applied and the mixture was blotted again using filter paper to remove excess. The dried specimens were then imaged using a LEO 912 energy filtering transmission electron microscope operating at 120 kV fitted with 14 bit/2 K Proscan CCD camera

[5] = FTIR spectroscopy, amide I region; details: 30 mM in D2O at pH 7
Method: Samples were contained in a standard IR transmission cell (Harrick Scientific) between two 2 mm CaF2 windows, separated by a polytetrafluoroethylene (PFTE) spacer of 50 μm thickness. Spectra were recorded on a Bruker Vertex 70 spectrometer by averaging 25 scans at a spectral resolution of 1 cm^−1. Spectra were corrected for absorption from a phosphate buffer blank sample and absorptions from trifluoroacetic acid (TFA).
The secondary structure of the peptides can be probed by infrared (IR) spectroscopy.^45,46 When aggregation takes place via intermolecular hydrogen bonding of the amide groups, the 1650-1655 cm^−1 absorption observed for free peptides in solution typically narrows and shifts to lower frequency, while the 1595 cm^−1 peak, assigned to carboxylate groups, broadens or decreases in intensity due to protonation or salt bridge formation. […] Note that small absorption maxima in the 1670-1685 cm^−1 region are assigned to residual trifluoro-acetic acid absorption and the 1570-1580 cm^−1 band for KFD is assigned to the aspartic acid side chain carboxylate group.
For KYF, a dramatic change in the amide region was noticed upon gelation with intense IR absorption peaks at 1621 and 1649 cm^−1 for the amide groups and 1568 cm^−1 for salt-bridged carboxylate groups.

[6] = pH dependence of the gelation of KYF
Method: We investigated the effects of pH on the gelation of the tripeptide KYF in aqueous solvent. […] The alteration of the pH will affect the protonation state of the ionisable groups on KYF i.e., N and C termini and the lysine side groups.
pH measurements were carried out ranging from pH 5 to 8. At each pH measurement an image was taken to show the gelation behaviour. The pH was altered using 0.5M NaOH which is added drop wise into the vial, vortexed to ensure a complete mix then the pH is measured until a stable value is obtained.
Initially, the peptide sample is dissolve in water and the pH is recorded. At this point the pH is below the pKa of the C-terminus therefore the terminal acid is protonated and gelation should not occur, which is what was observed.

| Structure (SMILES) | solubility [1] | aggregation behavior on dissolving in water [1] | diffusion constant (DOSY) [2] | average hydrodynamic radius / relative size of the aggregates (DLS) [3] [μm] | nanostructure seen by TEM [4] | secondary structure from amide I IR absorption [5] | also measured |
| --- | --- | --- | --- | --- | --- | --- | --- |
| N[C@@H](Cc1ccccc1)C(=O)N[C@@H](Cc1c[nH]cn1)C(=O)N[C@@H](Cc1ccccc1)C(=O)O [FHF] (H-Phe-His-Phe-OH) | poor solubility | suspensions | – | – | – | – | – |
| NCCCC[C@H](N)C(=O)N[C@@H](Cc1ccc(O)cc1)C(=O)N[C@@H](Cc1ccccc1)C(=O)O [KYF] (H-Lys-Tyr-Phe-OH) | – | translucent self-supporting hydrogel | lowest diffusion constant | 0.26 | entangled fibrous network | well-ordered peptide nanostructure | pH of critical gelation ([6]; aqueous, pH raised with 0.5M NaOH): 6.9-7.05; gelation behaviour ([6]; pH 2.21 to 6.7, aqueous): remained as a clear solution; gelation behaviour ([6]; pH 6.9, aqueous): weak gel; gelation behaviour ([6]; pH 7.05, aqueous): self-supporting hydrogel; gelation behaviour ([6]; pH 7.05 until 7.98, aqueous): stronger gels |
| NCCCC[C@H](N)C(=O)N[C@@H](Cc1ccccc1)C(=O)N[C@@H](CC(=O)O)C(=O)O [KFD] (H-Lys-Phe-Asp-OH) | – | – | intermediate diffusion rate | 0.13 | strongly curved fibers together with more amorphous regions | no extended secondary structure formation | – |
| CC[C@H](C)[C@H](N)C(=O)N[C@@H](Cc1ccc(O)cc1)C(=O)N[C@@H](Cc1ccccc1)C(=O)O [IYF] (H-Ile-Tyr-Phe-OH) | poor solubility | precipitated | – | – | – | – | – |
| O=C(O)[C@H](Cc1ccccc1)NC(=O)[C@H](Cc1ccccc1)NC(=O)[C@@H]1CCCN1 [PFF] (H-Pro-Phe-Phe-OH) | poor solubility; also recorded: low solubility | suspensions | – | 0.70 | short crystalline nanostructures with a large aspect ratio | β-sheet like arrangement of the amide groups | – |
| NCC(=O)NCC(=O)NCC(=O)O [GGG, reference compound] (H-Gly-Gly-Gly-OH) | – | – | highest diffusion constant | 0.10 | – | – | – |
| CC[C@H](C)[C@H](NC(=O)[C@H](Cc1ccc(O)cc1)NC(=O)[C@@H](N)Cc1ccccc1)C(=O)O [FYI] (H-Phe-Tyr-Ile-OH) | poor solubility | precipitated | – | – | – | – | – |

Continued, in another order:

| solubility [1] | aggregation behavior on dissolving in water [1] | diffusion constant (DOSY) [2] | average hydrodynamic radius / relative size of the aggregates (DLS) [3] [μm] | Structure (SMILES) | nanostructure seen by TEM [4] | secondary structure from amide I IR absorption [5] | also measured |
| --- | --- | --- | --- | --- | --- | --- | --- |
| – | did not give a gel | – | – | N=C(N)NCCC[C@H](N)C(=O)N[C@@H](Cc1ccc(O)cc1)C(=O)N[C@@H](Cc1ccccc1)C(=O)O [RYF] (H-Arg-Tyr-Phe-OH) | – | – | – |
| insoluble in water | – | – | – | N[C@@H](CO)C(=O)N[C@@H](Cc1ccc(O)cc1)C(=O)N[C@@H](Cc1ccccc1)C(=O)O [SYF] (H-Ser-Tyr-Phe-OH) | – | – | – |
